Series [1] in a line: Same study: body weight and lipid profiles. The settings on record: diacerin 50 mg twice daily, 24 weeks. It counts as in vivo, human. The protocol: This was a prospective, randomized, double-blind, and parallel comparison study comparing diacerin 50 mg versus placebo in patients with type 2 diabetes mellitus inadequately controlled by previous antidiabetic therapy. The starting dose of diacerin was 50 mg once daily every morning for 4 weeks and could be adjusted up to 50 mg twice daily (morning and evening) if patients have become accustomed to the medication. Patients were screened for eligibility four weeks (week—4) prior to entry at baseline (week 0). During this 4-week screening period, the participants continued their previous antidiabetic therapy, dietary habits, and other lifestyle habits. In order to be eligible for randomization following the 4-week screening period, patients must not have experienced hypoglycemia and must have had two fasting plasma glucose (FPG) measurements of between 135 to 250 mg/dL. At the end of the screening period, patients who met eligibility requirements were randomly assigned to receive diacerin 50 mg or placebo twice a day for 24 weeks observation. During treatment/observation period, the previous antidiabetic therapy including the class and/or dosage was not changed. […]
For the efficacy parameters, descriptive statistics were presented by visit. […] The area under the concentration-time curve (AUC) was used for evaluating the parameters measured by oral glucose tolerance test. […]

Series [2] relates to patients with type 2 diabetes mellitus inadequately controlled by previous antidiabetic therapy. In words: Randomized, double-blind, placebo-controlled study of diacerin in uncontrolled type 2 diabetes mellitus: HbA1c. It counts as in vivo, human. From the text: To evaluate the efficacy and safety of diacerin for the treatment of type 2 diabetes mellitus (DM).
To compare the efficacy of add-on diacerin with no add-on treatment (placebo) on HbA1c after 24-week double-blind treatment in Type 2 DM patients inadequately controlled by previous antidiabetic therapy.
Male or female patients (BMI≦35 kg/m^2) with type 2 diabetes mellitus on a stable oral hypoglycemic monotherapy for at least 3 months prior to screening visit. The HbA1c measurements taken at screening visit must be between 7% and 12%. Patients enrolled in the study must be receiving one or more oral antihyperglycemic agents including sulfonylurea, biguanides, alpha-glucosidase inhibitors, thiazolidinediones, and nonsulfonylurea insulin secretagogues.
This was a prospective, randomized, double-blind, and parallel comparison study comparing diacerin 50 mg versus placebo in patients with type 2 diabetes mellitus inadequately controlled by previous antidiabetic therapy. The starting dose of diacerin was 50 mg once daily every morning for 4 weeks and could be adjusted up to 50 mg twice daily (morning and evening) if patients have become accustomed to the medication. Patients were screened for eligibility four weeks (week—4) prior to entry at baseline (week 0). During this 4-week screening period, the participants continued their previous antidiabetic therapy, dietary habits, and other lifestyle habits. In order to be eligible for randomization following the 4-week screening period, patients must not have experienced hypoglycemia and must have had two fasting plasma glucose (FPG) measurements of between 135 to 250 mg/dL. At the end of the screening period, patients who met eligibility requirements were randomly assigned to receive diacerin 50 mg or placebo twice a day for 24 weeks observation. During treatment/observation period, the previous antidiabetic therapy including the class and/or dosage was not changed. Patients were asked to attend the center on eight occasions (screening, baseline, week 4, 8, 12, 16, 20 and 24) during the trial. The total study duration including the screening period for each patient was 28 weeks. There was a two weeks long follow-up period after completion of the treatment/observation. During this follow-up period, patients were followed for adverse events.
The difference (diacerin vs. placebo) of HbA1c reduction between the two treatment groups was analyzed by analysis of covariance (ANCOVA) with baseline value as a covariate. The corresponding 95% confidence interval was calculated. Within-group changes were also analyzed, with paired t test used to evaluate differences from baseline in each treatment group.
For the efficacy parameters, descriptive statistics were presented by visit. Statistical analysis was performed to assess the mean change from baseline. The area under the concentration-time curve (AUC) was used for evaluating the parameters measured by oral glucose tolerance test.
A dyslipidemia sub-group was assembled, wherein subjects had the following baseline levels: a) plasma cholesterol levels greater than 200 mg/dl, or b) plasma triglyceride levels greater than 150 mg/dl, or c) plasma LDL levels greater than 100 mg/dl. The effects of administering […] to the patients in this dyslipidemia sub-group were analyzed by paired t-test compared with the placebo group.
Subjects (n=76) were randomized in a 1:1 ratio to receive twice-daily diacerin 50 mg (n=38), or placebo (n=38) for 24 weeks. 26 subjects in the diacerin group finished the whole treatment period. Within these 26 subjects, there were 16 subjects with plasma cholesterol levels greater than 200 mg/dl, or plasma triglyceride levels greater than 150 mg/dl, or plasma LDL levels greater than 100 mg/dl at baseline respectively. Plasma cholesterol, triglyceride and LDL levels in the other 10 subjects were normal in the baseline. Thus, there were 16 subjects in the dyslipidemia subgroup.

SMILES strings stand for the structures.

Take `CC(=O)Oc1cccc2c1C(=O)c1c(OC(C)=O)cc(C(=O)O)cc1C2=O` [diacerin, 4,5-bis(acetyloxy)-9,10-dioxo-2-anthracene carboxylic acid]: in series [1], the “changes in body weight compared with the placebo group” value is given as “no significant changes”. Moreover, the “changes in lipid profiles compared with the placebo group” value in series [1] is “no significant changes”. The “HbA1c mean change from baseline, week 24” value is −0.63% in series [2] (All subjects (N=26) completing 24 weeks, diacerin 50 mg twice daily add-on); −0.82% in series [2] (Dyslipidemia subgroup (N=16), diacerin 50 mg twice daily, 24 weeks); −0.84% in series [2] (Hyper LDL-cholesterolemia subgroup (N=11), diacerin 50 mg twice daily, 24 weeks); −0.76% in series [2] (Hypercholesterolemia subgroup (N=7), diacerin 50 mg twice daily, 24 weeks); −0.89% in series [2] (Hypertriglyceridemia or hypercholesterolemia subgroup (N=14), diacerin 50 mg twice daily, 24 weeks); −0.83% in series [2] (Hypertriglyceridemia subgroup (N=11), diacerin 50 mg twice daily, 24 weeks). Besides, the “HbA1c mean change from baseline, week 24” value in series [2] (Normal lipid profiles subgroup (N=10), diacerin 50 mg twice daily, 24 weeks) was −0.30%. Further, in series [2] (after 24-week treatment, all subjects, p<0.05), the “decrease of HbA1c levels compared with the placebo group” value is on record as “about 0.63%”. Also, the “patients whose HbA1c levels decreased by more than or equal to 0.5%” value was found to be 50% in series [2] (diacerin group, 13 of 26 patients, 24 weeks); 62.5% in series [2] (dyslipidemia subgroup, 10 of 16 patients, 24 weeks); 57.1% in series [2] (hypercholesterolemia subgroup, 4 of 7 patients, 24 weeks); 71.4% in series [2] (hypertriglyceridemia or hypercholesterolemia subgroup, 10 of 14 patients, 24 weeks); 63.6% in series [2] (hypertriglyceridemia subgroup, 7 of 11 patients, 24 weeks); 40% in series [2] (normal plasma lipid profiles, 4 of 10 patients, 24 weeks). In addition, the “decrease of HbA1c levels compared with the baseline” value in series [2] (dyslipidemia subgroup, after 24-week treatment) was “about 0.82%”; in series [2] (type 2 diabetic patients with normal lipid profile, after 24-week treatment), “about 0.30%”.

For the origin of these results see patent US8846758B2, “Methods of decreasing glycosylated hemoglobin in patients with dyslipidemia” (TWi Biotechnology, Inc., priority 2011, dated 2014).
